According to the supplement of paper PMC10307832:

Legend:
Test in all cases: relative viability (nuclei count vs DMSO), 5 days (fraction); higher = more cells survive
[1] = compound: CCN1C(=O)C2=CC(=C(N=C2N(C1=O)C3CC3)N)C(=O)N + O=C(c1cc(Cc2n[nH]c(=O)c3ccccc23)ccc1F)N1CCN(C(=O)C2CC2)CC1 [Olaparib] (partner 8 µM)
In short: (§1)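 Cells from lung cancer lines were seeded into 1536-well plates and, one day later, dosed by pin tool. Treatments were either a single drug or a fixed dose of an anchor drug with five library-drug doses (not always all listed) in √10 steps. After 5 days, nuclei were stained in a one-step fixation (final 0.05% Triton X-100, 1% formaldehyde, 1 ug/ml Hoechst) and counted on 4× images, and relative viability is the treated-to-vehicle nuclei ratio, as the median of duplicate plates.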

[2] = compound: CCN1C(=O)C2=CC(=C(N=C2N(C1=O)C3CC3)N)C(=O)N + Nc1nc2[nH]cc(CCc3ccc(C(=O)N[C@@H](CCC(=O)O)C(=O)O)cc3)c2c(=O)[nH]1 [Pemetrexed] (partner 0.2 µM)
In short: as §1

[3] = compound: CCN1C(=O)C2=CC(=C(N=C2N(C1=O)C3CC3)N)C(=O)N + C[C@]1(O)C[C@@H](c2nc(-c3ccc4ccc(-c5ccccc5)nc4c3)c3c(N)nccn32)C1 [Linsitinib] (partner 1 µM)
In short: as §1

[4] = compound: CCN1C(=O)C2=CC(=C(N=C2N(C1=O)C3CC3)N)C(=O)N + C[C@@H](Oc1cc(-c2cnn(C3CCNCC3)c2)cnc1N)c1c(Cl)ccc(F)c1Cl [Crizotinib] (partner 1 µM)
In short: as §1

[5] = compound: CCN1C(=O)C2=CC(=C(N=C2N(C1=O)C3CC3)N)C(=O)N + CC(=O)Nc1cccc(-n2c(=O)n(C3CC3)c(=O)c3c(Nc4ccc(I)cc4F)n(C)c(=O)c(C)c32)c1 [Trametinib] (partner 0.02 µM)
In short: as §1

Cell Line | relative viability ([1]; first compound 0.253 µM) | relative viability ([1]; first compound 0.8 µM) | relative viability ([1]; first compound 2.53 µM) | relative viability ([1]; first compound 8 µM) | relative viability ([2]; first compound 0.253 µM) | relative viability ([2]; first compound 0.8 µM) | relative viability ([2]; first compound 2.53 µM) | relative viability ([2]; first compound 8 µM) | relative viability ([3]; first compound 0.253 µM) | relative viability ([3]; first compound 0.8 µM) | relative viability ([3]; first compound 2.53 µM) | relative viability ([3]; first compound 8 µM) | relative viability ([4]; first compound 0.253 µM) | relative viability ([4]; first compound 0.8 µM) | relative viability ([4]; first compound 2.53 µM) | relative viability ([4]; first compound 8 µM) | relative viability ([5]; first compound 0.253 µM) | relative viability ([5]; first compound 0.8 µM) | relative viability ([5]; first compound 2.53 µM) | relative viability ([5]; first compound 8 µM)
HCC-827 | 0.681 | 0.679 | 0.584 | 0.699 | 0.259 | 0.268 | 0.224 | 0.264 | 0.954 | 0.97 | 0.899 | 0.979 | 0.933 | 0.98 | 0.866 | 0.885 | 0.525 | 0.538 | 0.537 | 0.544
HOP-62 | 0.349 | 0.488 | 0.41 | 0.572 | 0.278 | 0.353 | 0.303 | 0.345 | 0.989 | 1.09 | 0.825 | 1.05 | 0.891 | 0.966 | 0.983 | 0.867 | 0.312 | 0.376 | 0.333 | 0.416
IA-LM | 0.92 | 0.818 | 0.739 | 0.845 | – | – | – | – | 0.629 | 0.618 | 0.492 | 0.553 | 0.816 | 0.662 | 0.797 | 1.14 | – | – | – | –
LC-2-ad | 0.803 | 0.892 | 0.736 | 0.772 | 0.288 | 0.298 | 0.273 | 0.278 | 0.811 | 0.805 | 0.782 | 0.899 | 0.217 | 0.433 | 0.437 | 0.537 | 0.918 | 0.865 | 0.845 | 0.871
LCLC-97TM1 | 0.422 | 0.397 | 0.318 | 0.419 | 0.227 | 0.177 | 0.173 | 0.172 | 0.196 | – | – | 0.218 | 0.366 | – | – | 0.316 | 0.194 | 0.217 | 0.203 | 0.182
LCLC-103H | 0.739 | 0.754 | 0.74 | 0.772 | 0.46 | 0.461 | 0.46 | 0.453 | 1.13 | 1.03 | 1.07 | 1.01 | 1.02 | 1.07 | 1.02 | 1.02 | 0.741 | 0.663 | 0.705 | 0.662
LK-2 | 0.641 | 0.706 | 0.575 | 0.596 | 0.3 | 0.286 | 0.303 | 0.301 | 0.575 | 0.612 | 0.655 | 0.616 | 0.412 | 0.226 | 0.204 | 0.153 | 0.756 | 0.715 | 0.727 | 0.795
LOU-NH91 | 0.913 | 0.924 | 0.92 | 0.946 | 0.369 | 0.377 | 0.383 | 0.379 | 1.04 | 0.951 | 0.96 | 0.879 | 0.705 | 0.718 | 0.767 | 0.707 | 0.791 | 0.76 | 0.772 | 0.772
LU99A | 0.256 | 0.285 | 0.256 | 0.275 | 0.174 | 0.187 | 0.168 | 0.184 | 0.594 | 0.578 | 0.51 | 0.626 | 0.587 | 0.57 | 0.476 | 0.591 | 0.504 | 0.545 | 0.56 | 0.549
LXF-289 | 0.957 | 1.07 | 1.01 | 1.18 | 0.917 | 0.889 | 0.895 | 0.993 | 0.968 | 0.96 | 0.833 | 0.958 | 0.834 | 0.852 | 0.759 | 0.84 | 0.636 | 0.658 | 0.661 | 0.665
NCI-H522 | 0.6 | 0.678 | 0.555 | 0.65 | 1.1 | 0.976 | 0.792 | 0.926 | – | – | – | – | – | – | – | – | 0.712 | 0.797 | 0.792 | 0.709
NCI-H727 | 0.81 | 0.705 | 0.539 | 0.774 | – | – | – | – | 0.297 | 0.354 | 0.282 | 0.272 | 0.899 | 0.797 | 0.843 | 0.882 | 0.39 | 0.436 | 0.422 | 0.386
NCI-H1395 | 0.43 | 0.481 | 0.457 | 0.491 | 0.922 | 0.811 | 0.979 | 0.816 | 1.13 | 0.888 | 0.974 | 1.13 | – | – | – | – | 1.13 | 0.94 | 1.04 | 1.07
NCI-H1650 | 0.707 | 0.665 | 0.714 | 0.733 | 0.38 | 0.324 | 0.333 | 0.382 | – | – | – | – | 0.982 | 0.897 | 1.11 | 1.2 | 0.572 | 0.571 | 0.563 | 0.611
NCI-H1703 | 0.702 | 0.616 | 0.384 | 0.379 | – | – | – | – | 0.852 | 1.12 | 0.853 | 0.6 | 0.718 | 0.727 | 0.565 | 1.04 | – | – | – | –
NCI-H1793 | 0.921 | 0.731 | 0.851 | 0.875 | 0.915 | 0.925 | 0.805 | 0.861 | 0.656 | 0.944 | – | 0.956 | – | – | – | – | 0.428 | 0.387 | 0.433 | 0.445
NCI-H2170 | 0.573 | 0.646 | 0.565 | 0.601 | 0.271 | 0.289 | 0.28 | 0.251 | – | – | – | – | 1.15 | 1.19 | 1.23 | 1.28 | 0.866 | 0.817 | 0.891 | 1.01
SW 900 | 0.84 | 1.1 | 0.955 | 0.928 | 0.462 | 0.517 | 0.52 | 0.473 | – | – | – | – | – | – | – | – | 0.81 | 0.864 | 0.75 | 0.641
